The structures appear in SMILES notation.

For orientation: inhibition means how much of the control response was suppressed.

The first experiment has as its target T1, Adenosine receptor A2b (Homo sapiens) (UniProt P29275).
T1 sequence (whole entry): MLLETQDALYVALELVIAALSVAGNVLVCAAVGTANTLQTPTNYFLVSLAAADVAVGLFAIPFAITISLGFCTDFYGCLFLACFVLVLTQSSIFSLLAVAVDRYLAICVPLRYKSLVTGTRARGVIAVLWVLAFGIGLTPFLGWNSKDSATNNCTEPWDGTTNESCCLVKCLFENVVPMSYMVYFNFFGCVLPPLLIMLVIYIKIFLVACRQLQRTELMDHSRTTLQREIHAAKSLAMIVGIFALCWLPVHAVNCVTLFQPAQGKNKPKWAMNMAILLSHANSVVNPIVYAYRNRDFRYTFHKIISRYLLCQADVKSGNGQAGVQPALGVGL
The experiment can be described thus: Displacement of [3H]DPCPX from recombinant human adenosine A2B receptor expressed in HEK293 cells at 0.01 uM. In general terms: Displacement assays read how much labelled ligand stays bound in the presence of the test substance.
For the compound `CCCn1c(=O)c2[nH]c(-c3ccc(OCC(=O)Nc4ccc(F)cc4)cc3OC)cc2n(CCC)c1=O`, the inhibition was found to be 16%.
In the case of `CCCn1c(=O)c2[nH]c(-c3ccc(OC(C)(C)C(=O)O)cc3)cc2n(CCC)c1=O`, the inhibition worked out at 12%.
On the same count and under the same terms, the figure for `CCCn1c(=O)c2[nH]c(-c3ccc(OC(C)(C)C(=O)O)cc3)cc2n(C)c1=O` is 8%.
Still for that read-out and setting: the value for `CCCn1c(=O)c2[nH]c(-c3ccc(OCC(=O)Nc4ccc(C(F)(F)F)cc4)cc3)cc2n(CCC)c1=O` was 14%.
Same read-out and setting: the value for `CCCn1c(=O)c2[nH]c(-c3ccc(OCC(=O)Nc4ccc(C)cn4)cc3)cc2n(C)c1=O` was 24%.
With `CCCn1c(=O)c2[nH]c(-c3ccc(OCC(=O)Nc4cccc(C)n4)cc3)cc2n(CCC)c1=O`, the inhibition was 20%.
With `O=C(COc1ccc(-c2cc3c([nH]2)c(=O)n(CC(F)(F)F)c(=O)n3CC(F)(F)F)cc1)Nc1ccc(F)cc1`, the inhibition turned out to be 22%.
Regarding `O=C(COc1ccc(-c2cc3c([nH]2)c(=O)n(CC2CC2)c(=O)n3CC2CC2)cc1)Nc1ccc(F)cc1`, the inhibition was 57%.
On to `CN(C(=O)COc1ccc(-c2cc3c([nH]2)c(=O)n(C)c(=O)n3C)cc1)c1ccccc1`, for which the inhibition worked out at 15%.
The same measure, in the same setting: the value for `O=C(COc1ccc(-c2cc3c([nH]2)c(=O)n(CC(F)(F)F)c(=O)n3CC(F)(F)F)cc1)Nc1ccccc1` was 15%; that for `CCCn1c(=O)c2nc(-c3ccc(OCC(N)=O)cc3)[nH]c2n(CCC)c1=O` was 11%; that for `CCCn1c(=O)c2[nH]c(-c3ccc(OCC(=O)Nc4ccc(Br)cc4)cc3Cl)cc2n(CCC)c1=O` was 17%.
The same measure, in the same setting: the value for `Cn1c(=O)c2[nH]c(-c3ccc(OCC(=O)NCc4ccncc4)cc3)cc2n(C)c1=O` was 5%; that for `O=C(O)COc1ccc(-c2cc3c([nH]2)c(=O)n(CC2CC2)c(=O)n3CC2CC2)cc1` was 27%.
On to `O=C(COc1ccc(-c2cc3c([nH]2)c(=O)n(CC2CC2)c(=O)n3CC2CC2)cc1)Nc1ccc(Br)cc1`, for which the inhibition came to 43%.
Same read-out and setting: the value for `CCCn1c(=O)c2[nH]c(-c3ccc(OCC(=O)Nc4ncccc4O)cc3)cc2n(C)c1=O` was 31%.
Regarding `CCCn1c(=O)c2[nH]c(-c3ccc(OC(C(=O)O)c4ccccc4)cc3)cc2n(CCC)c1=O` (stereo unspecified), the inhibition was found to be 10%.
On the same count and under the same terms, the figure for `CCCn1c(=O)c2[nH]c(-c3ccc(N(C=O)CC(=O)Nc4ccc(F)cc4)cc3)cc2n(CCC)c1=O` is 24%; for `COCCCn1c(=O)c2[nH]c(-c3ccc(OCC(=O)Nc4ccc(F)cc4)cc3)cc2n(CCCOC)c1=O` it is 24%; for `CCCn1c(=O)c2[nH]c(-c3ccc(OCC(=O)NC(CCl)c4ccccc4)cc3)cc2n(CCC)c1=O` (stereo unspecified) it is 25%.
The same measure, in the same setting: the value for `O=C(O)COc1ccc(-c2cc3c([nH]2)c(=O)n(CC(F)(F)F)c(=O)n3CC(F)(F)F)cc1` was 16%; that for `CCOC(=O)c1ccc(NC(=O)COc2ccc(-c3cc4c([nH]3)c(=O)n(C)c(=O)n4C)cc2OC)cc1` was 10%.

For the next experiment, the target named is T1, Adenosine receptor A2b (Homo sapiens). Kind of experiment: Displacement of [3H]DPCPX from recombinant human adenosine A2B receptor expressed in HEK293 cells at 0.1 uM. It is filed as cell-based.
As to `CCCn1c(=O)c2[nH]c(-c3ccc(OCC(=O)Nc4ccc(F)cc4)cc3OC)cc2n(CCC)c1=O`, the inhibition worked out at 27%.
Still for that read-out and setting: the figure for `CCCn1c(=O)c2[nH]c(-c3ccc(OC(C)(C)C(=O)O)cc3)cc2n(CCC)c1=O` is 26%; for `CCCn1c(=O)c2[nH]c(-c3ccc(OC(C)(C)C(=O)O)cc3)cc2n(C)c1=O` it is 50%; for `CCCn1c(=O)c2[nH]c(-c3ccc(OCC(=O)Nc4ccc(C(F)(F)F)cc4)cc3)cc2n(CCC)c1=O` it is 85%.
On the same count and under the same terms, the figure for `CCCn1c(=O)c2[nH]c(-c3ccc(OCC(=O)Nc4ccc(C)cn4)cc3)cc2n(C)c1=O` is 73%; for `CCCn1c(=O)c2[nH]c(-c3ccc(OCC(=O)Nc4cccc(C)n4)cc3)cc2n(CCC)c1=O` it is 68%.
Still for that read-out and setting: the value for `O=C(COc1ccc(-c2cc3c([nH]2)c(=O)n(CC(F)(F)F)c(=O)n3CC(F)(F)F)cc1)Nc1ccc(F)cc1` was 68%; that for `O=C(COc1ccc(-c2cc3c([nH]2)c(=O)n(CC2CC2)c(=O)n3CC2CC2)cc1)Nc1ccc(F)cc1` was 95%.
In the case of `CN(C(=O)COc1ccc(-c2cc3c([nH]2)c(=O)n(C)c(=O)n3C)cc1)c1ccccc1`, the inhibition is 61%.
On the same count and under the same terms, the value for `O=C(COc1ccc(-c2cc3c([nH]2)c(=O)n(CC(F)(F)F)c(=O)n3CC(F)(F)F)cc1)Nc1ccccc1` was 57%.
The same measure, in the same setting: the value for `CCCn1c(=O)c2nc(-c3ccc(OCC(N)=O)cc3)[nH]c2n(CCC)c1=O` was 56%.
As to `CCCn1c(=O)c2[nH]c(-c3ccc(OCC(=O)Nc4ccc(Br)cc4)cc3Cl)cc2n(CCC)c1=O`, the inhibition amounted to 79%.
As to `Cn1c(=O)c2[nH]c(-c3ccc(OCC(=O)NCc4ccncc4)cc3)cc2n(C)c1=O`, the inhibition worked out at 51%.
Same read-out and setting: the figure for `O=C(O)COc1ccc(-c2cc3c([nH]2)c(=O)n(CC2CC2)c(=O)n3CC2CC2)cc1` is 69%; for `O=C(COc1ccc(-c2cc3c([nH]2)c(=O)n(CC2CC2)c(=O)n3CC2CC2)cc1)Nc1ccc(Br)cc1` it is 94%.
Same read-out and setting: the figure for `CCCn1c(=O)c2[nH]c(-c3ccc(OCC(=O)Nc4ncccc4O)cc3)cc2n(C)c1=O` is 71%; for `CCCn1c(=O)c2[nH]c(-c3ccc(OC(C(=O)O)c4ccccc4)cc3)cc2n(CCC)c1=O` (stereo unspecified) it is 47%.
On the same count and under the same terms, the figure for `CCCn1c(=O)c2[nH]c(-c3ccc(N(C=O)CC(=O)Nc4ccc(F)cc4)cc3)cc2n(CCC)c1=O` is 93%.
For the compound `COCCCn1c(=O)c2[nH]c(-c3ccc(OCC(=O)Nc4ccc(F)cc4)cc3)cc2n(CCCOC)c1=O`, the inhibition stood at 68%.
The same measure, in the same setting: the value for `CCCn1c(=O)c2[nH]c(-c3ccc(OCC(=O)NC(CCl)c4ccccc4)cc3)cc2n(CCC)c1=O` (stereo unspecified) was 74%.
On the same count and under the same terms, the figure for `O=C(O)COc1ccc(-c2cc3c([nH]2)c(=O)n(CC(F)(F)F)c(=O)n3CC(F)(F)F)cc1` is 22%; for `CCOC(=O)c1ccc(NC(=O)COc2ccc(-c3cc4c([nH]3)c(=O)n(C)c(=O)n4C)cc2OC)cc1` it is 47%.

The target in another experiment is Adenosine receptor A2a (Homo sapiens, UniProt P29274). The experiment can be described thus: Displacement of [3H]ZM-241385 from recombinant human adenosine A2A receptor expressed in HeLa cells at 0.1 uM.
Chain of Adenosine receptor A2a (P29274 whole entry): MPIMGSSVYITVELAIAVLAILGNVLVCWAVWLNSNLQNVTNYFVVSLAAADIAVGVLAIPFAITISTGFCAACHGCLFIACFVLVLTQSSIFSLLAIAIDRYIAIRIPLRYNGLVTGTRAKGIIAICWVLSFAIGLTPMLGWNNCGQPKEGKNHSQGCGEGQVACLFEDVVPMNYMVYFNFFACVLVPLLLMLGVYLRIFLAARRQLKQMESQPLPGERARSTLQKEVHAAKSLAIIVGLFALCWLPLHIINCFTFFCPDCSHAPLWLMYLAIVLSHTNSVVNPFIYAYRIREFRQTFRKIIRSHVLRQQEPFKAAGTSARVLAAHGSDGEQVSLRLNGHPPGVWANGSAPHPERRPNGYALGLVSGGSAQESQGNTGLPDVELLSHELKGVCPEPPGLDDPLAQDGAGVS
As to `CCCn1c(=O)c2[nH]c(-c3ccc(OCC(=O)Nc4ccc(F)cc4)cc3OC)cc2n(CCC)c1=O`, the inhibition was determined as 43%.
The same measure, in the same setting: the value for `CCCn1c(=O)c2[nH]c(-c3ccc(OC(C)(C)C(=O)O)cc3)cc2n(CCC)c1=O` was 6%; that for `CCCn1c(=O)c2[nH]c(-c3ccc(OC(C)(C)C(=O)O)cc3)cc2n(C)c1=O` was 3%; that for `CCCn1c(=O)c2[nH]c(-c3ccc(OCC(=O)Nc4ccc(C(F)(F)F)cc4)cc3)cc2n(CCC)c1=O` was 19%.
As to `CCCn1c(=O)c2[nH]c(-c3ccc(OCC(=O)Nc4ccc(C)cn4)cc3)cc2n(C)c1=O`, the inhibition was 12%.
Same read-out and setting: the value for `CCCn1c(=O)c2[nH]c(-c3ccc(OCC(=O)Nc4cccc(C)n4)cc3)cc2n(CCC)c1=O` was 45%.
Same read-out and setting: the value for `O=C(COc1ccc(-c2cc3c([nH]2)c(=O)n(CC(F)(F)F)c(=O)n3CC(F)(F)F)cc1)Nc1ccc(F)cc1` was 18%.
The same measure, in the same setting: the figure for `O=C(COc1ccc(-c2cc3c([nH]2)c(=O)n(CC2CC2)c(=O)n3CC2CC2)cc1)Nc1ccc(F)cc1` is 98%; for `CN(C(=O)COc1ccc(-c2cc3c([nH]2)c(=O)n(C)c(=O)n3C)cc1)c1ccccc1` it is 0%; for `O=C(COc1ccc(-c2cc3c([nH]2)c(=O)n(CC(F)(F)F)c(=O)n3CC(F)(F)F)cc1)Nc1ccccc1` it is 4%.
For the compound `CCCn1c(=O)c2nc(-c3ccc(OCC(N)=O)cc3)[nH]c2n(CCC)c1=O`, the inhibition is 10%.
The same measure, in the same setting: the value for `CCCn1c(=O)c2[nH]c(-c3ccc(OCC(=O)Nc4ccc(Br)cc4)cc3Cl)cc2n(CCC)c1=O` was 31%; that for `Cn1c(=O)c2[nH]c(-c3ccc(OCC(=O)NCc4ccncc4)cc3)cc2n(C)c1=O` was 37%; that for `O=C(O)COc1ccc(-c2cc3c([nH]2)c(=O)n(CC2CC2)c(=O)n3CC2CC2)cc1` was 40%.
Same read-out and setting: the figure for `O=C(COc1ccc(-c2cc3c([nH]2)c(=O)n(CC2CC2)c(=O)n3CC2CC2)cc1)Nc1ccc(Br)cc1` is 89%.
For `CCCn1c(=O)c2[nH]c(-c3ccc(OCC(=O)Nc4ncccc4O)cc3)cc2n(C)c1=O`, the inhibition came out at 22%.
Turning to `CCCn1c(=O)c2[nH]c(-c3ccc(OC(C(=O)O)c4ccccc4)cc3)cc2n(CCC)c1=O` (stereo unspecified), the inhibition is 5%.
Same read-out and setting: the value for `CCCn1c(=O)c2[nH]c(-c3ccc(N(C=O)CC(=O)Nc4ccc(F)cc4)cc3)cc2n(CCC)c1=O` was 89%; that for `COCCCn1c(=O)c2[nH]c(-c3ccc(OCC(=O)Nc4ccc(F)cc4)cc3)cc2n(CCCOC)c1=O` was 20%.
The same measure, in the same setting: the value for `CCCn1c(=O)c2[nH]c(-c3ccc(OCC(=O)NC(CCl)c4ccccc4)cc3)cc2n(CCC)c1=O` (stereo unspecified) was 75%.
Same read-out and setting: the value for `O=C(O)COc1ccc(-c2cc3c([nH]2)c(=O)n(CC(F)(F)F)c(=O)n3CC(F)(F)F)cc1` was 19%; that for `CCOC(=O)c1ccc(NC(=O)COc2ccc(-c3cc4c([nH]3)c(=O)n(C)c(=O)n4C)cc2OC)cc1` was 0%.

For the origin of these results see ChEMBL document CHEMBL1148617, “Design, synthesis, and structure-activity relationships of 1-,3-,8-, and 9-substituted-9-deazaxanthines at the human A2B adenosine receptor” (J Med Chem, 2006).
